Results taken from US20140073761A1, “CONJUGATES CONTAINING HYDROPHILIC SPACER LINKERS” (priority 2007, published 2014).
*1 amine or outer side, *2 acyl side, *3 side chain or, on linkers, in order; H or OH if unused. Where a SMILES comes first, the peptide text is derived from it. [ ]: non-standard residue; d: D form. The star is where a group is joined. X1 = CC[C@]1(O)C[C@H]2CN(CCc3c([nH]c4ccccc34)[C@@](C(=O)OC)(c3cc4c(cc3OC)N(C)[C@H]3[C@@](O)(C(=O)NNC(=O)OCCS*)[C@H](O)[C@]5(CC)C=CCN6CC[C@]43[C@@H]65)C2)C1; Nle(3R-OH,4S-OH,5R-OH,6-OH) = N[C@H](C(=O)O)[C@@H](O)[C@H](O)[C@H](O)CO; Pteroyl = Nc1nc2ncc(CNc3ccc(C(=O)*)cc3)nc2c(=O)[nH]1; γGlu = O=C(O)[C@H](CCC(=O)[*:2])N[*:1]

Tests used:
[1] = rat, in vivo
Description: Comparison of Bile Clearance (% ID) of unconjugated drug, drug conjugate lacking a hydrophilic spacer linker, and conjugates described herein.

RAW264.7 cells = format: cell-based; details: for RAW264.7 Cells Competable with xs folate: excess folic acid
Description: (§1) In Vitro Concentration-Dependent Cytotoxic Activity. Cells were heavily seeded in 24-well Falcon plates and allowed to form nearly confluent monolayers overnight. Thirty minutes prior to the addition of test article, spent medium was aspirated from all wells and replaced with fresh folate-free RPMI (FFRPMI). […] Treated cells were pulsed for 2 h at 37° C., rinsed 4 times with 0.5 mL of media, and then chased in 1 mL of fresh media up to 70 h. Spent media was aspirated from all wells and replaced with fresh media containing 5 μCi/mL ^3H-thymidine. Following a further 2 h 37° C. incubation, cells were washed 3 times with 0.5 mL of PBS and then treated with 0.5 mL of ice-cold 5% trichloroacetic acid per well. After 15 min, the trichloroacetic acid was aspirated and the cell material solubilized by the addition of 0.5 mL of 0.25 N sodium hydroxide for 15 min. Four hundred and fifty μL of each solubilized sample were transferred to scintillation vials containing 3 mL of Ecolume scintillation cocktail and then counted in a liquid scintillation counter. Final tabulated results were expressed as the percentage of ^3H-thymidine incorporation relative to untreated controls.
(§2) As shown in the figures herein, dose-dependent cytotoxicity was measurable, and in most cases, the IC50 values (concentration of drug conjugate required to reduce ^3H-thymidine incorporation into newly synthesized DNA by 50%) were in the low nanomolar range. […] The following table illustrated data for selected compounds against KB cells and against RAW264.7 cells

[2] = tested on: folate receptor-positive KB cells; format: cell-based; details: excess folic acid
Description: Inhibition of Cellular DNA Synthesis. The compounds described herein were evaluated using an in vitro cytotoxicity assay that predicts the ability of the drug to inhibit the growth of folate receptor-positive KB cells. The compounds were comprised of folate linked to a respective chemotherapeutic drug, as prepared according to the protocols described herein. […] The cells were then rinsed once with fresh culture medium and incubated in fresh culture medium for 72 hours at 37° C. Cell viability was assessed using a ^3H-thymidine incorporation assay.
as §1, §2

[3] = FIG. 6B, 7B, 8B; M109 tumors, Balb/c mice; 2 μmol/kg TIW two weeks
Description: Toxicity as Measured by Weight Loss. The percentage weight change was determined in mice (5 mice/group) on selected days post-tumor inoculation (PTI), compared to controls, and graphed.

In the case of CC[C@]1(O)C[C@@H]2CN(CCc3c([nH]c4ccccc34)[C@@](C(=O)OC)(c3cc4c(cc3OC)N(C)[C@H]3[C@@](O)(C(=O)NN)[C@H](O)[C@]5(CC)C=CCN6CC[C@]43[C@@H]65)C2)C1 [DAVLBH, deacetylvinblastine monohydrazide, reference compound], the “Bile clearance (% ID)” value [1] is reported as 58.0 % ID.
For CO[C@H]1C[C@@H]2CC[C@@H](C)[C@@](O)(O2)C(=O)C(=O)N2CCCC[C@H]2C(=O)O[C@H]([C@H](C)C[C@@H]2CC[C@@H](O)[C@H](OC)C2)CC(=O)[C@H](C)/C=C(\C)[C@@H](OC(=O)OCCSSCCC(=O)NC[C@@H]2NC(=O)[C@@H](NC(=O)[C@H](CCC(=O)O)NC(=O)[C@H](CCC(=O)NC[C@H](O)[C@@H](O)[C@H](O)[C@H](O)CO)NC(=O)[C@H](CCC(=O)O)NC(=O)[C@H](CCC(=O)NC[C@H](O)[C@@H](O)[C@H](O)[C@H](O)CO)NC(=O)CC[C@H](NC(=O)c3ccc(NCc4cnc5nc(N)[nH]c(=O)c5n4)cc3)C(=O)O)CCC(=O)NC[C@H](O)[C@@H](O)[C@H](O)[C@H]3COB(O3)[C@H](CC(C)C)NC(=O)[C@H](Cc3ccccc3)NC(=O)c3cnc(cn3)CSSC[C@@H](C(=O)O)NC2=O)[C@@H](OC)C(=O)[C@H](C)C[C@H](C)/C=C/C=C/C=C/1C [EC0563], the “RAW264.7 Cells Competable with xs folate” value (RAW264.7 cells) was “Yes”.
With COc1ccc(C[C@H]2NC(=O)/C=C/C[C@@H]([C@H](C)[C@@H](OC(=O)OCCSSC[C@H](NC(=O)[C@@H](NC(=O)[C@H](CC(=O)O)NC(=O)[C@@H](NC(=O)[C@H](CC(=O)O)NC(=O)[C@@H](NC(=O)CC[C@H](NC(=O)c3ccc(NCc4cnc5nc(N)[nH]c(=O)c5n4)cc3)C(=O)O)[C@@H](O)[C@H](O)[C@H](O)CO)[C@@H](O)[C@H](O)[C@H](O)CO)[C@@H](O)[C@H](O)[C@H](O)CO)C(=O)O)[C@@H](Cl)c3ccccc3)OC(=O)[C@H](CC(C)C)OC(=O)C(C)(C)CNC2=O)cc1Cl [EC0262] the “KB Cells Competable with xs folate” value [2] was “Yes”.
With CCC(C)[C@H](NC(=O)[C@H]1CCCCN1C)C(=O)N(COC(=O)CC(C)C)[C@H](C[C@@H](OC(C)=O)c1nc(C(=O)N[C@@H](Cc2ccc(O)cc2)C[C@H](C)C(=O)NNC(=O)OCSSC[C@H](NC(=O)[C@H](CCC(=O)NC[C@H](O)[C@@H](O)[C@H](O)[C@H](O)CO)NC(=O)[C@H](CCC(=O)O)NC(=O)[C@H](CCC(=O)NC[C@H](O)[C@@H](O)[C@H](O)[C@H](O)CO)NC(=O)[C@H](CCC(=O)O)NC(=O)[C@H](CCC(=O)NC[C@H](O)[C@@H](O)[C@H](O)[C@H](O)CO)NC(=O)CC[C@H](NC(=O)c2ccc(NCc3cnc4nc(N)[nH]c(=O)c4n3)cc2)C(=O)O)C(=O)O)cs1)C(C)C (stereo partly drawn) [EC0543] the “KB Cells Competable with xs folate” value [2] was “Yes”.
For CC[C@]1(O)C[C@H]2CN(CCc3c([nH]c4ccccc34)[C@@](C(=O)OC)(c3cc4c(cc3OC)N(C)[C@H]3[C@@](O)(C(=O)NNC(=O)OCCSSC[C@H](NC(=O)[C@@H](NC(=O)[C@H](CC(=O)O)NC(=O)[C@@H](NC(=O)[C@H](CC(=O)O)NC(=O)[C@@H](NC(=O)[C@H](CC(=O)O)NC(=O)[C@@H](NC(=O)CC[C@H](NC(=O)c5ccc(NCc6cnc7nc(N)[nH]c(=O)c7n6)cc5)C(=O)O)[C@@H](O)[C@H](O)[C@H](O)CO)[C@@H](O)[C@H](O)[C@H](O)CO)[C@@H](O)[C@H](O)[C@H](O)CO)[C@@H](O)[C@H](O)[C@H](O)CO)C(=O)O)[C@H](O)[C@]5(CC)C=CCN6CC[C@]43[C@@H]65)C2)C1 [EC0434, Tetra-Saccharo-Tris-Asp-Folate Vinblastine Conjugate] ({Pteroyl-γGlu}-[Nle(3R-OH,4S-OH,5R-OH,6-OH)]D[Nle(3R-OH,4S-OH,5R-OH,6-OH)]D[Nle(3R-OH,4S-OH,5R-OH,6-OH)]D[Nle(3R-OH,4S-OH,5R-OH,6-OH)]C(X1)-OH), the “percent of total dose in the bile (total DAVLBH biliary excretion)” value ([1]; iv) was 2.8% and the “gross toxicity (percentage body weight change)” value [3] was “no gross toxicity was observed”.
For CO[C@H]1C[C@@H]2CC[C@@H](C)[C@@](O)(O2)C(=O)C(=O)N2CCCC[C@H]2C(=O)O[C@H]([C@H](C)C[C@@H]2CC[C@@H](O)[C@H](OC)C2)CC(=O)[C@H](C)/C=C(\C)[C@@H](OC(=O)OCCSSC[C@H](NC(=O)[C@H](CCC(=O)NC[C@H](O)[C@@H](O)[C@H](O)[C@H](O)CO)NC(=O)[C@H](CCC(=O)O)NC(=O)[C@H](CCC(=O)NC[C@H](O)[C@@H](O)[C@H](O)[C@H](O)CO)NC(=O)[C@H](CCC(=O)O)NC(=O)[C@H](CCC(=O)NC[C@H](O)[C@@H](O)[C@H](O)[C@H](O)CO)NC(=O)CC[C@H](NC(=O)c2ccc(NCc3cnc4nc(N)[nH]c(=O)c4n3)cc2)C(=O)O)C(=O)O)[C@@H](OC)C(=O)[C@H](C)C[C@H](C)/C=C/C=C/C=C/1C [EC0552], the “RAW264.7 Cells Competable with xs folate” value (RAW264.7 cells) was “Yes”.
In the case of CC(=O)O[C@H]1C(=O)[C@@]2(C)[C@H]([C@H](OC(=O)c3ccccc3)[C@]3(O)C[C@H](OC(=O)[C@H](OC(=O)COc4ccc(C(=O)NNC(=O)OCCSSC[C@H](NC(=O)[C@H](CCC(=O)NC[C@H](O)[C@@H](O)[C@H](O)[C@H](O)CO)NC(=O)[C@H](CCC(=O)O)NC(=O)[C@H](CCC(=O)NC[C@H](O)[C@@H](O)[C@H](O)[C@H](O)CO)NC(=O)[C@H](CCC(=O)O)NC(=O)[C@H](CCC(=O)NC[C@H](O)[C@@H](O)[C@H](O)[C@H](O)CO)NC(=O)CC[C@H](NC(=O)c5ccc(NCc6cnc7nc(N)[nH]c(=O)c7n6)cc5)C(=O)O)C(=O)O)cc4)[C@@H](NC(=O)c4ccccc4)c4ccccc4)C(C)=C1C3(C)C)[C@]1(OC(C)=O)CO[C@@H]1C[C@@H]2O [EC0561], the “KB Cells Competable with xs folate” value [2] is reported as “Yes”.
For CNC(=O)[C@H](Cc1cn(CCO[C@@H]2OC(C(=O)O)C(O)[C@H](O)C2O)nn1)NC(=O)CC[C@H](NC(=O)c1ccc(NCc2cnc3nc(N)nc(O)c3n2)cc1)C(=O)O (stereo partly drawn) [EC0423], the “Bile clearance (% ID)” value [1] was 3.9 % ID.
With Nc1nc(N)c2nc(CNc3ccc(C(=O)N[C@@H](CCC(=O)OCCSSC[C@H](NC(=O)[C@H](CCC(=O)NC[C@H](O)[C@@H](O)[C@H](O)[C@H](O)CO)NC(=O)[C@H](CCC(=O)O)NC(=O)[C@H](CCC(=O)NC[C@H](O)[C@@H](O)[C@H](O)[C@H](O)CO)NC(=O)[C@H](CCC(=O)O)NC(=O)[C@H](CCC(=O)NC[C@H](O)[C@@H](O)[C@H](O)[C@H](O)CO)NC(=O)CC[C@H](NC(=O)c4ccc(NCc5cnc6nc(N)[nH]c(=O)c6n5)cc4)C(=O)O)C(=O)O)C(=O)O)cc3)cnc2n1 [EC0551] the IC50 (RAW264.7 cells) was 1 nM and the “RAW264.7 Cells Competable with xs folate” value (RAW264.7 cells) was “Yes”.
In the case of CO[C@H]1C[C@@H]2CC[C@@H](C)[C@@](O)(O2)C(=O)C(=O)N2CCCC[C@H]2C(=O)O[C@H]([C@H](C)C[C@@H]2CC[C@@H](OCCOC(=O)OCCSSCCC(=O)NC[C@@H]3NC(=O)[C@@H](NC(=O)[C@H](CCC(=O)O)NC(=O)[C@H](CCC(=O)NC[C@H](O)[C@@H](O)[C@H](O)[C@H](O)CO)NC(=O)[C@H](CCC(=O)O)NC(=O)[C@H](CCC(=O)NC[C@H](O)[C@@H](O)[C@H](O)[C@H](O)CO)NC(=O)CC[C@H](NC(=O)c4ccc(NCc5cnc6nc(N)[nH]c(=O)c6n5)cc4)C(=O)O)CCC(=O)NC[C@H](O)[C@@H](O)[C@H](O)[C@H]4COB(O4)[C@H](CC(C)C)NC(=O)[C@H](Cc4ccccc4)NC(=O)c4cnc(cn4)CSSC[C@@H](C(=O)O)NC3=O)[C@H](OC)C2)CC(=O)[C@H](C)/C=C(\C)[C@@H](O)[C@@H](OC)C(=O)[C@H](C)C[C@H](C)/C=C/C=C/C=C/1C [EC0582], the “RAW264.7 Cells Competable with xs folate” value (RAW264.7 cells) is reported as “Yes”.
